Literature values as cited in patent US5006550A, “Chroman esters of phenols and benzoic acids having retinoid-like activity” (Allergan, Inc., priority 1989, dated 1991).

System: ornithine decarboxylase (ODC)
Conditions: background statement on retinoic acid

In the case of `CC1=C(/C=C/C(C)=C/C=C/C(C)=C/C(=O)O)C(C)(C)CCC1` [Retinoic acid], the “inhibition of induction of ODC activity by TPA (in words)” value is listed as “inhibits this induction of ODC activity by TPA”.
